Experimental data as given in paper PMC10420992, “Phosphodiesterase 5 and Arginase Inhibitory Activities of the Extracts from Some Members of Nelumbonaceae and Nymphaeaceae Families” (Molecules, 2023).

Assays:
PDE5 (PDE5A1) = biological target: T1, PDE5 (PDE5A1) (Homo sapiens, UniProt O76074); assay: Phosphodiesterase 5 inhibition assay (two-step radioactive procedure, [3H]cGMP); type: biochemical; details: for IC50: flavonoids, mean ± SD, triplicate
T1 construct: made in house; host or cells: HEK293 (transient transfection; supernatant of sonicated homogenate)

[1] = tested on: PDE5 enzymes isolated from the mice lungs; parameters: method as in PMID 25920267; details: cited from earlier work
[2] = biological target: PDE5 enzymes isolated from the lungs and hearts of male guinea pigs; details: cited from earlier work
[3] = tested on: rabbit corpus cavernosum tissues; parameters: method as in PMID 17968465; details: rabbit tissue; cited from earlier work

Row | Structure (SMILES) | PDE5 IC50 level (in words) (PDE5 (PDE5A1)) | IC50 (PDE5 (PDE5A1)) [µM] | PDE5 inhibition (in words) [1] | PDE5 inhibitory activity of 3 relative to 1, 2 and 4 (PDE5 (PDE5A1); times stronger than 1, 2, and 4) | IC50 [2] [µM] | Relaxant effect on corpus cavernosum tissues [3]
1 | O=c1c(O)c(-c2ccc(O)c(O[C@@H]3OC[C@@H](O)[C@H](O)[C@H]3O)c2)oc2cc(O)cc(O)c12 [Compound 1, quercetin 3’-O-β-xylopyranoside] | micromolar level | 4.09 ± 0.76 |  |  |  | 
2 | COc1c(-c2ccc(O)c(OC3OCC(O)C(O)C3O)c2)oc2cc(O)cc(O)c2c1=O (stereo not drawn) [Compound 2, quercetin 3-methyl ether 3’-O-β-xylopyranoside] | micromolar level | 5.63 ± 0.2 |  |  |  | 
3 | O=c1c(O)c(-c2ccc(O)c(O)c2)oc2cc(O)cc(O)c12 [Compound 3, quercetin] | micromolar level | 0.61 ± 0.11 | inhibit PDE5 enzymes | 7–9 times |  | 
4 | COc1c(-c2ccc(O)c(O)c2)oc2cc(O)cc(O)c2c1=O [Compound 4, 3-O-methylquercetin] | micromolar level | 5.74 ± 2.11 |  |  | 86.9 | 
5 | O=c1c(O)c(-c2ccc(O)cc2)oc2cc(O)cc(O)c12 [Compound 5, kaempferol] |  |  | inhibit PDE5 enzymes |  |  | 
6 | COc1c(-c2ccc(O)cc2)oc2cc(O)cc(O)c2c1=O [Compound 6, 3-O-methylkaempferol] | micromolar level | 4.41 ± 0.46 |  |  |  | 
7 | COc1ccc(C[C@@H]2c3cc(Oc4cc(C[C@@H]5c6cc(OC)c(OC)cc6CCN5C)ccc4O)c(OC)cc3CCN2C)cc1 [Neferine] |  |  |  |  |  | relaxant effect
